The conditions of data set [1]: cystinuria patients; cited from earlier work.
The conditions of data set [2]: cited from earlier work.
Data set [3] in a line: Example 8 cystinosis patient cases: plasma cysteamine levels. The class given is in vivo, human. An excerpt: (§1) Dose formulations and treatment regimens for three patients with cystinosis are described, to illustrate both demographic variability in the patient population and how inter-individual biochemical variation in drug absorption, metabolism and response can be overcome by exploiting the drug and dosage form flexibility provided by the invention. These examples illustrate the principles of cysteamine precursor selection, dosage form selection and dose regimen individualization.

Data set [4] has as its system white blood cell (WBC) cystine. The experiment in a line: Example 8 cystinosis patient cases: white blood cell cystine. The class given is in vivo, human.
Source text: as §1
Disease control is monitored via periodic measurement of white blood cell cystine levels. The therapeutic target, as for all cystinosis patients, is to suppress white blood cell (WBC) cystine to less than 1 nanomole of ½ cystine per mg of WBC protein. […] If this higher dose is still not effective in controlling WBC cystine levels the dose can be further increased in increments of 150 mg/day.

Data set [5] in a line: Pharmacokinetic study of TTI-0602: cysteamine in blood plasma after gavage. The class given is in vivo, Sprague-Dawley rats. On the procedure:
Thus in the discussion below, and in the accompanying figures, a “30 mg/kg” dose of TTI-0602 means 77.92 mg/kg was administered, a “60 mg/kg” dose of TTI-0602 means 155.84 mg/kg was administered and a “120 mg/kg” dose of TTI-0602 means 311.68 mg/kg was administered. The purpose of this nomenclature, which is widely used in the literature concerning cysteamine salts, is to facilitate comparison of doses of different cysteamine precursors and cysteamine salts.
The TTI-0602 doses were prepared for 250 gram rats, but the actual masses of the rats at the time of drug administration varied from 267-300 grams, so the actual doses, normalized to body weight, ranged from 26.1-27.1 mg/kg in group 1, 51.7-56.2 mg/kg in group 2 and 108.3-109.5 mg/kg in group 3. Nonetheless, for convenience those doses are referred to as 30, 60 and 120 mg/kg.
Blood samples were obtained from rats immediately before dosing and 5, 10, 20, 30, 45, 60, 90, 120, 180, 240, 300 and 600 minutes after dosing via carotid artery catheters surgically implanted before the PK study. Plasma was obtained from blood by centrifugation and snap frozen. Several days later plasma samples were thawed on ice and each plasma sample was aliquoted to two paired tubes (20 μL per tube), one of which was processed for measurement of thiols (after quantitative disulfide bond reduction), while the other was processed for analysis of disulfides.
To quantitatively reduce disulfide bonds the plasma in the first tube was treated with 5 mM tris(2-carboxyethyl)phosphine (TCEP), a selective and potent disulfide bond reducing agent, using a protocol reported by Dohil et al. (2012). Briefly, 2.2 ul of freshly prepared 50 mM TCEP stock solution was added to 20 ul of plasma and the sample incubated at 37 degrees C. for 45 minutes. […]
The denatured protein was pelleted by centrifugation at 14,000 rpm for 10 minutes at 4 degrees C. in an Eppendorf microcentrifuge. […] Metabolites were analyzed using a Nexera X2 U-HPLC (Shimadzu) and a Q-Exactive hybrid quadrupole Orbitrap mass spectrometer (Thermo Fisher Scientific). […]

The next data set deals with cystinosis patients. As to conditions: high doses, syrup between meals; cited from earlier work.
In data set [6] the test system is CYP1A2, CYP2A6, CYP2B6, CYP2C8, CYP2C9, CYP2C19, CYP2D6, CYP2E1 and CYP3A4. The conditions noted are these: in vitro; cited from earlier work.
For data set [7] the following is noted: Lynovex from Novabiotics; cited from earlier work.
The subject of another data set is Pseudomonas aeruginosa. The conditions noted are these: cited from earlier work.
A further data set deals with kidney fibrosis. The conditions noted are these: two mouse models; cited from earlier work.
The conditions of data set [8]: administered to fasting patients; cited from earlier work.
In data set [9] the test system is cancer cell lines and xenograft models. The conditions noted are these: cited from earlier work.
The test system of another data set is R6/2 HD mouse model. The conditions noted are these: R6/2 mouse; cited from earlier work.
The next data set deals with Plasmodium Falciparum. The conditions noted are these: in vitro and in mouse models of malaria; cited from earlier work.
Data set [10] relates to CYP1A2, CYP2B6, CYP2C8, CYP2C9, CYP2C19, CYP2D6, CYP2E1, CYP2A6, CYP3A4. As to conditions: in vitro; cited from earlier work.
The subject of a further data set is children with NAFLD. As to conditions: pediatric NAFLD patients treated for 24 weeks; cited from earlier work.
In data set [11] the test system is erythrocytes from sickle cell disease patients. As to conditions: hypoxic conditions; cited from earlier work.
The nature of data set [12]: Dissolution of TTI-0602 dose in saline. The class given is physicochemical. As to conditions: 120 mg/kg dose in 3 milliliters of saline.
Data set [13] is described as follows: Analysis of gastrointestinal contents at end of PK study. The class given is in vivo, Sprague-Dawley rats. As to conditions: 120 mg/kg rats, ten hours after dosing. The protocol: (§2) In addition to the plasma samples, gastrointestinal contents (stomach contents, proximal small intestinal contents, distal small intestinal contents and cecum/colon contents), liver, kidney and spleen were obtained from rats at the end of the study (10.5 hours after dosing) and snap frozen. Tissue levels of cysteamine, N-acetyl cysteamine and pantothenic acid were measured in the gastrointestinal contents and in liver and kidney tissue. […]

Data set [14] in a line: Tissue levels of cysteamine in liver and kidney at end of PK study. The class given is in vivo, Sprague-Dawley rats. The conditions noted are these: 10.5 hours after TTI-0602 120 mg/kg, all three rats. The protocol: as §2
For data set [15] the following is noted: in vivo; cited from earlier work.
For another data set, the system named is ALT and AST in plasma. The experiment in a line: Example 9 NASH patient case: plasma liver enzymes. The class given is in vivo, human. As to conditions: within six weeks of initiating therapy; with vitamin C and vitamin E.
[16] abbreviates: cysteamine hydrochloride at 30 mg/kg cysteamine base, gavage.

Protocol for ALT and AST in plasma: The daily dose of vitamin C is 2 grams and the daily dose of vitamin E is 800 international units of alpha tocopherol, RRR stereoisomer, which amounts to 533.3 milligrams per day (1 IU of tocopherol is defined as % milligrams of RRR-alpha-tocopherol). Half those amounts are administered twice per day.
Drug is administered in two divided doses (1,392 mg each) at 10 to 12 hour intervals, with breakfast and dinner.
In the second category (dynamic markers of drug response) levels of ALT and AST in plasma are followed over time as an index of ongoing hepatocyte damage. […] If ALT and AST levels had not dropped by 50% the regimen would have been discontinued.

Turning to `CC(S)C(=O)NCC(=O)O` (stereo not drawn) [Alpha-mercaptopropionylglycine], the tolerability result in [1] is reported as “not tolerated by about one third of patients”.

Regarding `NCCS.O=C(O)C(O)C(O)C(=O)O` (centres unmarked) [cysteamine bitartrate], in data set [2] (cysteamine bitartrate 20 mg/kg cysteamine base equivalent), the “time by which cysteamine levels returned to baseline” value is not above 2 h. Further, the “cysteamine eliminated by 150 minutes (inferred)” value in [2] (cysteamine bitartrate 20 mg/kg, tissue) is “over 95%”. The “tissue half life of cysteamine” value in data set [2] (cysteamine bitartrate 20 mg/kg) is 25 to 29 min.

Turning to `CC(C)(CO)[C@@H](O)C(=O)NCCC(=O)NCCSSCCN` [cysteamine-pantetheine disulfide, cysteamine-(R)-pantetheine disulfide], in data set [3] (Patient 2, 1,800 mg/day as IR/DR/SR powders), the “plasma cysteamine level six hours after the morning dose” value is 22 µM. Also, in [3] (Patient 2, immediately before the evening dose), the “plasma cysteamine level 12 hours after the morning dose” value turned out to be 4 µM. Also, the WBC cystine level in data set [4] (Patient 2, after sustained release component increased from 540 to 800 mg/day) was 0.9 nanomoles of ½ cystine per mg protein; in [4] (Patient 2, after two months, 1,800 mg/day cysteamine free base as IR/DR/SR powders), 1.34 nanomoles of ½ cystine per mg of protein.

As to `CC(S)C(=O)NCC(=O)O` (centres unmarked) [tiopronin], the tolerability entry in [1] is “not well tolerated by most patients”.

On to `Cl.NCCS` [cysteamine HCl, cysteamine hydrochloride], for which the “shape of the plasma cysteamine concentration-time curve” value in [5] (cysteamine hydrochloride 30 mg/kg vs TTI-0602 120 mg/kg) was “a high, sharp peak”. Moreover, in data set [5] (setting [16]), the “peak plasma cysteamine concentration” value is recorded as “over 200 uM” and the “time by which cysteamine concentration declined to less than half maximal” value was not above 90 min.

In the case of `CC(C)(CO)[C@@H](O)C(=O)NCCC(=O)NCCSSCCNC(=O)CCNC(=O)[C@H](O)C(C)(C)CO` [pantethine], in the data set with cystinosis patients, the gastrointestinal side effect result is reported as “caused diarrhea”.

Turning to `NCCS` [cysteamine, 2-aminoethanethiol], the “inhibition of CYP enzymes” value in data set [6] is “not an inhibitor of CYP1A2, CYP2A6, CYP2B6, CYP2C8, CYP2C9, CYP2C19, CYP2D6, CYP2E1 and CYP3A4”. Moreover, the “mucolytic activity vs. currently available mucolytic agents” value in [7] was “at least comparable mucolytic activity”. The effect on biofilms result in the data set with Pseudomonas aeruginosa (P. aeruginosa biofilms) was “prevented the formation of, and disrupted established P. aeruginosa biofilms”. In addition, the bactericidal activity entry with Pseudomonas aeruginosa (Pseudomonas aeruginosa and other CF pathogens, Lynovex from Novabiotics) is on record as “bactericidal”. Also, in the data set with kidney fibrosis, the “efficacy in kidney fibrosis models” value was “effective”. In addition, the “inter-patient variation in cysteamine plasma levels” value in data set [8] was “up to four fold”. The matrix metalloproteinase activity result in data set [9] (animal xenografts and cancer cell lines) is reported as “significantly decreased”. For the same compound, the survival of mice entry in data set [9] (xenograft models) is “prolonged survival of mice in a dose-dependent manner without toxicity”. In the data set with R6/2 HD mouse model, the “beneficial effects in HD mouse model” value is “amelioration of weight loss and motor abnormalities, and prolongation of survival”. In the data set on Plasmodium Falciparum, the “proliferation of the parasite” value is “inhibits proliferation”. Also, the “metabolism by CYP enzymes” value in [10] was “likely to be metabolized by multiple CYP enzymes, including CYP1A2, CYP2B6, CYP2C8, CYP2C9, CYP2C19, CYP2D6, and CYP2E1, but not by CYP2A6 or CYP3A4”. Moreover, the “high molecular weight adiponectin multimers” value with children with NAFLD is listed as “increased levels of high molecular weigh adiponectin multimers”. In addition, the sickling result in data set [11] is recorded as “marked inhibition of sickling”.

For `CC(=O)NCCSSCCNC(=O)CCNC(=O)[C@H](O)C(C)(C)CO` [TTI-0602, N-acetylcysteamine-(R)-pantetheine disulfide], in [12], the “dissolution of dose in saline” value is “did not completely dissolve in saline”. In addition, the “undissolved drug in gastrointestinal contents” value in [13] is “a substantial amount of undissolved drug remained stuck in the stomachs of rats 8 and 9”. For the same compound, in [14], the “tissue level of cysteamine in kidney” value is recorded as “over 50 uM” and the “tissue level of cysteamine in liver” value is “over 50 uM”.

`CC(C)(COP(=O)(O)O)[C@@H](O)C(=O)NCCC(=O)NCCS` [4-phosphopantetheine]: the “half life in blood” value in [15] is reported as “over 3 hours”.

As for `CC(C)(S)[C@@H](N)C(=O)O` [penicillamine], in [1], the tolerability result is “not well tolerated by most patients”.

For the compound `NCCS` [cysteamine bitartrate], the Cmax in data set [2] (read-out: Cmax of cysteamine, cysteamine bitartrate 20 mg/kg cysteamine base equivalent) is 81.9 µM.

As for `CC(=O)NC(CSSCCN)C(=O)O` (centres unmarked) [cysteamine-N-acetylcysteine, cysteamine-N-acetylcysteine disulfide], in the data set with ALT and AST in plasma, the “fall in plasma ALT” value is “at least 50%” and the “fall in plasma AST” value is recorded as “at least 50%”.

In general, Cmax refers to the peak of the concentration-time curve.

The values are drawn from patent US11173135B2 (Thiogenesis Therapeutics, Inc., priority 2016, dated 2021).
